This note sets out measurements from patent publication US8232409B2, “Heterocyclic benzimidazoles as TRPM8 modulators” (Janssen Pharmaceutica N.V., priority 2008, dated 2012).

Assay [1] has as its system CCI-induced cold hypersensitivity in Sprague Dawley rats. Briefly: Chronic constriction injury (CCI)-induced neuropathic pain, acetone-induced cold hypersensitivity. It is filed as in vivo. The following applies: po; rat CCI; 10 mg/kg p.o.; 3 h post-dose; read-out: % Inhibition (acetone-evoked paw withdrawals). An excerpt: Male Sprague Dawley rats (225-450 g; n=5-8/treatment) were used to evaluate the ability of selected compounds of the Formula (I) to reverse CCI-induced cold hypersensitivity. Four loose ligatures of 4-0 chromic gut were surgically placed around the left sciatic nerve under inhalation anesthesia as described by Bennett et al. (Bennett, G. J.; Xie, Y. K. Pain 1988, 33(1), 87-107). Fourteen to 35 days following CCI surgery, subjects were placed in elevated observation chambers containing wire mesh floors and five applications of acetone (0.05 mL/application separated by approximately 5 minutes) were spritzed onto the plantar surface of the paw using a multidose syringe. An abrupt withdrawal or lifting of the paw was considered a positive response. The number of positive responses was recorded for each rat over the five trials. Following baseline withdrawal determinations, compounds of Formula (I) are administered in an appropriate vehicle, such as hydroxypropyl-β-cyclodextrin ([…]), methylcellulose, Methocel, 10% Solutol, or H2O, or the like, by the appropriate route, i.p. or p.o. The number of withdrawals were redetermined 1 to 3 h after compound administration. Results are presented as a percent inhibition of shakes, which was calculated for each subject as [1−(test compound withdrawals/pre-test withdrawals)]×100 and then averaged by treatment.

In assay [2] the test system is icilin-induced "wet-dog" shakes in Sprague Dawley rats. Briefly: Reversal of icilin-induced "wet-dog" shakes in rats. The following applies: po; rat; 10 mg/kg p.o.; 1 h post-icilin. It is filed as in vivo.
The target in another assay is T1, canine TRPM8 (Canis lupus familiaris, UniProt Q1A7N1).
T1 construct: expressed in transfected cells
Briefly: In vitro canine TRPM8 functional assay (icilin-induced intracellular Ca2+, FLIPR/FDSS).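 As to all read-outs here: intracellular Ca2+ tracked with a Ca2+-sensitive fluorescent dye, compound applied 5 min before icilin was added.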 It is filed as cell-based. The following applies: HEK293 cells stably expressing canine TRPM8; for inhibition at 0.2 µM: 0.200 μM compound, icilin challenge (~80% maximal response), read-out: % Inh. @ 0.200 μM; for IC50: icilin challenge, eight-point dose-response.

Counter-ions that a name gives are not always drawn.

T1 sequence (Q1A7N1 1-1104): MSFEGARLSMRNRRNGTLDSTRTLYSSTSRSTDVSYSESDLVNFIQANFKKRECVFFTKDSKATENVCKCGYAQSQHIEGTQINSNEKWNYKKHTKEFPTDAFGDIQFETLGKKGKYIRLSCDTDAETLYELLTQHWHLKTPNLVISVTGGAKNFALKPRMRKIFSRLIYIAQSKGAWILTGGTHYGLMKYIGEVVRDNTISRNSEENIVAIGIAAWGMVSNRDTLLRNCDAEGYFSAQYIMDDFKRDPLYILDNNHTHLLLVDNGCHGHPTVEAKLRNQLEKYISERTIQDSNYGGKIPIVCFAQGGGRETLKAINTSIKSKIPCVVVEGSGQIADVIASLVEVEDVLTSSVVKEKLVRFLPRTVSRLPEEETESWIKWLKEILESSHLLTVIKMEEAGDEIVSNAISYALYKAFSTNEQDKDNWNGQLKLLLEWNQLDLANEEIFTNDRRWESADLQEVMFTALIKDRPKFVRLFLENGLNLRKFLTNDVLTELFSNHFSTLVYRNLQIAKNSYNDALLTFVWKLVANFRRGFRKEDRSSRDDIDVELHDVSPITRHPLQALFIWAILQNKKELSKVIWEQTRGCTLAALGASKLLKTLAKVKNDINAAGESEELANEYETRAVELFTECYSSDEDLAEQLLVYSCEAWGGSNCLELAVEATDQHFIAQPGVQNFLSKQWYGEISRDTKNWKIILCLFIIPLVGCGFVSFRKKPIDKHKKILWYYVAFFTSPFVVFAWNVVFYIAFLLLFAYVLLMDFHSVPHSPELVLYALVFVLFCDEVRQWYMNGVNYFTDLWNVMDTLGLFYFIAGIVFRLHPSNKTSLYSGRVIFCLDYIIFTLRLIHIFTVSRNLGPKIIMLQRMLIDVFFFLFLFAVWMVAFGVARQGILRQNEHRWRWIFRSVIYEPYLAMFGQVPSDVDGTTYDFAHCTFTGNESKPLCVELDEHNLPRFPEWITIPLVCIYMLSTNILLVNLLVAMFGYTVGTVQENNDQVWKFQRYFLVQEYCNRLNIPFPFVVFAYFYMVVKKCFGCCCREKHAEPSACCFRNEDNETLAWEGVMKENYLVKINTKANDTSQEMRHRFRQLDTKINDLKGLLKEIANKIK

Regarding `FC(F)(F)c1ccccc1-c1ccc2nc(C3=NOC4(CCCCC4)C3)[nH]c2c1` [Cpd 1, 3-[5-(2-Trifluoromethyl-phenyl)-1H-benzimidazol-2-yl]-1-oxa-2-aza-spiro[4.5]dec-2-ene], the inhibition in vivo at 10 mg/kg in assay [1] came to 65%.
`FC(F)(F)Oc1ccccc1-c1ccc2[nH]c(C3=NOC4(CCCCC4)C3)nc2c1` [Cpd 7, 3-[5-(2-Trifluoromethoxy-phenyl)-1H-benzimidazol-2-yl]-1-oxa-2-aza-spiro[4.5]dec-2-ene hydrochloride]: the results for the inhibition in vivo at 10 mg/kg in assay [2] and in assay [1] were > 96% and 83%, respectively.
In the case of `Fc1cccc(OC(F)(F)F)c1-c1ccc2[nH]c(C3=NOC4(CCCCC4)C3)nc2c1` [Cpd 8, 3-[5-(2-Fluoro-6-trifluoromethoxy-phenyl)-1H-benzimidazol-2-yl]-1-oxa-2-aza-spiro[4.5]dec-2-ene hydrochloride], the inhibition in vivo at 10 mg/kg in assay [2] was > 96%.
Turning to `FC(F)(F)c1ccccc1-c1cc(Cl)c2[nH]c(C3=NOC4(CCCCC4)C3)nc2c1` [Cpd 16, 3-[7-Chloro-5-(2-trifluoromethylphenyl)-1H-benzimidazol-2-yl]-1-oxa-2-aza-spiro[4.5]dec-2-ene hydrochloride], the inhibition in vivo at 10 mg/kg was > 99% in assay [2] and 82.5% in assay [1].
As for `FC(F)(F)c1ccccc1-c1cc(C(F)(F)F)c2[nH]c(C3=NOC4(CCCCC4)C3)nc2c1` [Cpd 27, 3-[7-Trifluoromethyl-5-(2-trifluoromethyl-phenyl)-1H-benzimidazol-2-yl]-1-oxa-2-aza-spiro[4.5]dec-2-ene hydrochloride], on canine TRPM8, the inhibition at 0.2 µM is 100%. Also, the inhibition in vivo at 10 mg/kg in assay [2] was > 99%; in assay [1] it was 83%.
Take `CC1C(c2nc3cc(-c4ccccc4C(F)(F)F)cc(C(F)(F)F)c3[nH]2)=NOC12CCCCC2` (centres unmarked) [Cpd 28, 4-Methyl-3-[7-trifluormethyl-5-(2-trifluoromethyl-phenyl)-1H-benzimidazol-2-yl]-1-oxa-2-aza-spiro[4.5]dec-2-ene hydrochloride]: at canine TRPM8, the inhibition at 0.2 µM stood at 101% and half-maximal inhibition (IC50) was put at 1.1 nM. Also, in assay [2], the inhibition in vivo at 10 mg/kg was 30%.
Turning to `FC(F)(F)c1cc(-c2ccccc2Cl)cc2nc(C3=NOC4(CCCCC4)C3)[nH]c12` [Cpd 30, 3-[5-(2-Chloro-phenyl)-7-trifluoromethyl-1H-benzimidazol-2-yl]-1-oxa-2-aza-spiro[4.5]dec-2-ene hydrochloride], the inhibition at 0.2 µM at canine TRPM8 was 97%. Further, the inhibition in vivo at 10 mg/kg was > 98% in assay [2] and 62.9% in assay [1].
As for `FC(F)(F)Oc1ccccc1-c1cc(Cl)c2[nH]c(C3=NOC4(CCCCC4)C3)nc2c1` [Cpd 50, 3-[7-Chloro-5-(2-trifluoromethoxyphenyl)-1H-benzimidazol-2-yl]-1-oxa-2-aza-spiro[4.5]dec-2-ene methanesulfonate], at canine TRPM8, the inhibition at 0.2 µM stood at 101% and the IC50 (commonly the point on the concentration scale where inhibition reaches its midpoint) amounted to 1.9 nM.
In the case of `FC(F)(F)Oc1ccccc1-c1cc(C(F)(F)F)c2[nH]c(C3=NOC4(CCCCC4)C3)nc2c1` [Cpd 51, 3-[5-(2-Trifluoromethoxyphenyl)-7-trifluoromethyl-1H-benzimidazol-2-yl]-1-oxa-2-aza-spiro[4.5]dec-2-ene hydrochloride], at canine TRPM8, the inhibition at 0.2 µM was determined as 97%. For the same molecule, the inhibition in vivo at 10 mg/kg in assay [2] is > 98%; in assay [1], 57.1%.
As for `COCCCc1cc(-c2ccccc2C(F)(F)F)cc2nc(C3=NOC4(CCCCC4)C3)[nH]c12` [Cpd 52, 3-[7-(3-Methoxy-propyl)-5-(2-trifluoromethylphenyl)-1H-benzimidazol-2-yl]-1-oxa-2-aza-spiro[4.5]dec-2-ene hydrochloride], on canine TRPM8, the inhibition at 0.2 µM was 97% and the IC50 is 1 nM.
`Fc1ccccc1-c1cc(C(F)(F)F)c2[nH]c(C3=NOC4(CCCCC4)C3)nc2c1` [Cpd 53, 3-[5-(2-Fluorophenyl)-7-trifluoromethyl-1H-benzimidazol-2-yl]-1-oxa-2-aza-spiro[4.5]dec-2-ene hydrochloride]: at canine TRPM8, the inhibition at 0.2 µM came out at 97%. Further, the inhibition in vivo at 10 mg/kg was > 98% in assay [2] and 42.9% in assay [1].
With `Cc1c(-c2ccccc2C(F)(F)F)cc(C)c2[nH]c(C3=NOC4(CCCCC4)C3)nc12` [Cpd 54, 3-[4,7-Dimethyl-5-(2-trifluoromethylphenyl)-1H-benzimidazol-2-yl]-1-oxa-2-aza-spiro[4.5]dec-2-ene hydrochloride], at canine TRPM8, the inhibition at 0.2 µM stood at 97% and 5.8 nM corresponded to half-maximal inhibition (IC50).
The matching figures for `Cc1c(-c2ccccc2C(F)(F)F)cc(Cl)c2[nH]c(C3=NOC4(CCCCC4)C3)nc12` [Cpd 55, 3-[7-Chloro-4-methyl-5-(2-trifluoromethylphenyl)-1H-benzimidazol-2-yl]-1-oxa-2-aza-spiro[4.5]dec-2-ene hydrochloride]: 97% and 4.7 nM.
The matching figures for `FC(F)(F)c1ccccc1-c1ccc2[nH]c(C3=NOC4(CCCCC4)C3)nc2n1` [Cpd 56, 2-(1-Oxa-2-aza-spiro[4.5]dec-2-en-3-yl)-5-(2-trifluoromethyl-phenyl)-1H-imidazo[4,5-b]pyridine hydrochloride]: 101% and 4.6 nM.
As to `FC(F)(F)c1ccccc1-c1cc2nc(C3=NOC4(CCCCC4)C3)[nH]c2cn1` [Cpd 57, 2-(1-Oxa-2-aza-spiro[4.5]dec-2-en-3-yl)-6-(2-trifluoromethyl-phenyl)-3H-imidazo[4,5-c]pyridine hydrochloride], at canine TRPM8, the inhibition at 0.2 µM was 102% and the IC50 came out at 2.7 nM.
Take `FC(F)(F)c1ccccc1-c1cnc2[nH]c(C3=NOC4(CCCCC4)C3)nc2c1` [Cpd 58, 2-(1-Oxa-2-aza-spiro[4.5]dec-2-en-3-yl)-6-(2-trifluoromethyl-phenyl)-3H-imidazo[4,5-b]pyridine hydrochloride]: on canine TRPM8, the inhibition at 0.2 µM stood at 101% and inhibition was half-maximal at 2 nM (IC50).
